Measured values reported in patent publication US20250367209A1 (SOUTHERN RESEARCH INSTITUTE, priority 2022, published 2025).
pIC50: −log10 of the molar value. Entries after “also recorded” stand apart in the source; their conditions may differ. Like-named read-outs stand apart in the source and are kept apart here.

Experiments:
Tau-FynSH3 interaction = Tau-FynSH3 interaction (Homo sapiens (Human), UniProt P10636); assay: Tau-FynSH3 AlphaScreen; assay type: binding
Outline: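 Purified GST-Fyn-SH3-Strep and His-tagged human 4R2N Tau-Strep from E. coli, tested by AlphaScreen with glutathione donor and nickel chelate acceptor beads in Bis-Tris pH 7.0, TCEP, casein, Tween-20. Compound preincubated 30 min with first protein at 600 nM, then second protein 30 min, then beads 2 h.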

primary rat neurons = assay: Modified MTT assay of Aβ toxicity in primary neurons; assay type: cell-based; settings: for MTT: Table 3, Aβ toxicity in primary neurons; for Aβ toxicity / Aβ-induced membrane trafficking dysfunction, modified MTT assay: compound 0.3, 3 or 15 μM, 90-minute pretreatment, 2.5 μM Aβ, 24 hours
Excerpt: Primary neuron cultures: All animal procedures were approved by the Institutional Animal Care and Use Committee at the University of Alabama at Birmingham (UAB). As before (Rush, et al. (2020) Neurobiol Dis 134, 104668; Voskobiynyk, et al. (2020) eLife 9, e57354), primary rat neurons were isolated from timed-pregnant Sprague-Dawley rats. Briefly, dams were euthanized with isoflurane anesthesia asphyxiation, and hippocampal tissue was isolated from E19 embryos in Hibernate E, then digested in papain for 10 minutes at 37° C. Neurons were triturated into a single cell suspension in Neurobasal supplemented with B-27, L-Glutamine, and 10% FBS, then plated in 96-well plates coated with PDL and laminin at 30,000 neurons per well in 200 uL medium or in 24-well coated plates with or without coverslips at 50,000 per well. Cultures were maintained at 37° C. with 5% CO2. Twenty-four hours after plating (DIV1), two 50% media changes with Neurobasal plus B-27 and L-Glutamine without FBS, and 5 μM cytosine β-D-arabinofuranoside was added to prevent glial proliferation. 50% media changes were performed at DIV7 and DIV14 with serum-free supplemented Neurobasal and experiments were started at DIV19.
Aβ oligomer preparation: As before (Rush, et al. (2020) Neurobiol Dis 134, 104668), lyophilized recombinant Aβ42 was dissolved in HFIP, dried overnight, then stored at −20° C. until oligomerization. To oligomerize, Aβ was dissolved in DMSO to 1 mM, then diluted to 100 µM in PBS, then sonicated and left on ice for 24 hours. Immediately prior to use, Aβ was centrifuged at 4° C. for 10 minutes at 14,000×g. Vehicle was prepared as well in identical fashion except lacking the Aβ peptide.
Aβ toxicity assays: The modified MTT and MAP2 assays were adapted from a recent study (Rush, et al. (2020) Neurobiol Dis 134, 104668). Briefly, at DIV19, media on the neurons was reduced to […], then compound was added to final concentration of 0 μM, 0.3 μM, 3 μM, or 15 μM with even amounts of DMSO. After 90-minute pretreatment with compound, 2.5 μM Aβ was added.
The modified MTT assay was performed 24 hours after Aβ application. 100 μM MTT was applied to neurons and incubated at 37° C. for one hour. Media was removed, then replaced with 15 μL 1.6% Tween20 in PBS and incubated on a shaker at 100 rpm for 5 minutes. The Tween was then removed and transferred to a 384-well clear-bottom plate and replaced with 15 μL isopropanol. Plates were again agitated for 5 minutes at RT, then isopropanol was transferred to the 384-well plate. Absorbance was then read at 590 nm on a plate reader, with 660 nm used as a reference. The ratio of Tween soluble MTT to isopropanol soluble (Tween-insoluble) MTT was calculated for each sample, then normalized to the vehicle group average.

[1] = Table 2, Tau-FynSH3 inhibitory activity in the AlphaScreen, read-out: IC50
[2] = Table 3, read-out: Alpha screen IC50

Chain of Tau-FynSH3 interaction (P10636 other isoform, or with tags, fused parts or gaps): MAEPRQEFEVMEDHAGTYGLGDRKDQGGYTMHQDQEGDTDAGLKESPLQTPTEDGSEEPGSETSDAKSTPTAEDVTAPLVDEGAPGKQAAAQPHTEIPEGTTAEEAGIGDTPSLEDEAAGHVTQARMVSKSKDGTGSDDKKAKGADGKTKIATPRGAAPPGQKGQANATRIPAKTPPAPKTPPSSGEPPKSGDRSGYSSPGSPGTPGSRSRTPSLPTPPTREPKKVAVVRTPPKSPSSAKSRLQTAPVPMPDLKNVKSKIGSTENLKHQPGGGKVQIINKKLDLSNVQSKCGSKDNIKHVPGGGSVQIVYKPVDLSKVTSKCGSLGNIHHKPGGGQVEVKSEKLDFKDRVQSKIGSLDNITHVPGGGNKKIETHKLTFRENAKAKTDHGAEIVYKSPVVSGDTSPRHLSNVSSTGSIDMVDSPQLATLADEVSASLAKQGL

Row | Structure (SMILES) | pIC50 (Tau-FynSH3 interaction; [1]) | pIC50 (Tau-FynSH3 interaction; [2]) | MTT (primary rat neurons) | AlphaScreen activity (in words) (Tau-FynSH3 interaction) | Aβ toxicity / Aβ-induced membrane trafficking dysfunction, modified MTT assay (primary rat neurons) | pIC50 (Tau-FynSH3 interaction; unit printed as 'M', Table 2 gives 0.55 μM, read-out: IC50, inhibition in the AlphaScreen)
1 | O=C(CN1CCOc2ccccc21)Nc1nnc(-c2ccccn2)[nH]1 [compound 47, 2-(2,3-DIHYDRO-4H-BENZO[B][1,4]OXAZIN-4-YL)-N-(5-(PYRIDIN-2-YL)-4H-1,2,4-TRIAZOL-3-YL)ACETAMIDE] | 6.49 | 6.04 | Active |  |  | 
2 | O=C(CN1C(=O)CSc2cc(F)ccc21)Nc1nnc(-c2ccccn2)[nH]1 [compound no. 12, 2-(7-FLUORO-3-oxo-2H-BENZO[B][1,4]THIAZIN-4(3H)-YL)-N-(5-(PYRIDIN-2-YL)-4H-1,2,4-TRIAZOL-3-YL)ACETAMIDE] | 6.00 |  | Active | submicromolar IC50 | inhibited Aβ toxicity; also recorded: did ameliorate Aβ toxicity | 
3 | O=C(CN1C(=O)CSc2cc(Cl)ccc21)Nc1nnc(-c2ccccn2)[nH]1 [compound no. 13, 2-(7-CHLORO-3-OXO-2H-BENZO[B][1,4]THIAZIN-4(3H)-YL)-N-(5-(PYRIDIN-2-YL)-4H-1,2,4-TRIAZOL-3-YL)ACETAMIDE] |  | 6.03 | Active |  | inhibited Aβ toxicity; also recorded: did ameliorate Aβ toxicity | 
4 | O=C(CN1C(=O)CSc2cc(F)c(F)cc21)Nc1nnc(-c2ccccn2)[nH]1 [compound no. 14, 2-(6,7-DIFLUORO-3-OXO-2H-BENZO[B][1,4]THIAZIN-4(3H)-YL)-N-(5-(PYRIDIN-2-YL)-4H-1,2,4-TRIAZOL-3-YL)ACETAMIDE] |  | 6.05 | Active |  | did not ameliorate Aβ toxicity | 
5 | O=C(CN1CCSc2ccccc21)Nc1nnc(-c2ccccn2)[nH]1 [compound no. 20, 2-(2H-BENZO[B][1,4]THIAZIN-4(3H)-YL)-N-(5-(PYRIDIN-2-YL)-4H-1,2,4-TRIAZOL-3-YL)ACETAMIDE] | 6.26 | 6.26 | Insoluble |  |  | 6.26
6 | Cc1ccc2c(c1)SCC(=O)N2CC(=O)Nc1nnc(-c2ccccn2)[nH]1 [compound no. 23, 2-(7-METHYL-3-OXO-2H-BENZO[B][1,4]THIAZIN-4(3H)-YL)-N-(5-(PYRIDIN-2-YL)-4H-1,2,4-TRIAZOL-3-YL)ACETAMIDE] | 6.10 |  | Active |  | inhibited Aβ toxicity; also recorded: did ameliorate Aβ toxicity | 
7 | O=C(CN1CCCc2ccccc21)Nc1nnc(-c2ccccn2)[nH]1 [compound no. 45, 2-(3,4-DIHYDROQUINOLIN-1(2H)-YL)-N-(5-(PYRIDIN-2-YL)-4H-1,2,4-TRIAZOL-3-YL)ACETAMIDE] | 5.90 |  | Active |  | inhibited Aβ toxicity; also recorded: did ameliorate Aβ toxicity | 
8 | O=C(CCN1C(=O)CSc2ccccc21)Nc1nnc(-c2ccccn2)[nH]1 [compound no. 55] | 5.30 |  |  |  | prevented Aβ-induced membrane trafficking dysfunction; also recorded: ameliorates Aβ toxicity; also recorded: inhibited Aβ toxicity | 
9 | O=C(CN1CCOc2ccccc21)Nc1nnc(-c2ccccn2)[nH]1 [compound no. 69] |  |  |  | submicromolar activity | prevented Aβ-induced membrane trafficking dysfunction; also recorded: ameliorates Aβ toxicity; also recorded: inhibited Aβ toxicity | 
